Data: patent US11738008B2, “N-methyl-D-aspartic acid receptor modulators” (Emory University, priority 2018, dated 2023)
Where two headings read alike, the source gives them in different places.

How the values were obtained:
[1] = tested on: benzodiazapine rat brain site; assay: NIMH PDSP radioligand binding, benzodiazapine rat brain site
Method: (§1) The NIMH PDSP is Directed by Bryan L. Roth at the University of North Carolina at Chapel Hill and Project Officer Jamie Driscoll at NIMH, Bethesda Md., USA. Radioligand binding was measured in the presence of 10 μM 1180-420 and 1180-447. […] For experimental details please refer to the PDSP web site https://pdsp.unc.edu/ims/investigator/web/. Both 1180-420 and 1180-447 were also tested at AMPA, nicotinic acetylcholine, serotonin, GABA, and glycine ion channels using a two-electrode voltage clamp assay.
(§2) Receptor binding profiles of compound 1180-447 were generously provided by the National Institute of Mental Health's Psychoactive Drug Screening Program, Contract # HHSN-271-2013-00017-C(NIMH PDSP). The NIMH PDSP is directed by Bryan L. Roth at the University of North Carolina at Chapel Hill and Project Officer Jamie Driscoll at NIMH, Bethesda Md., USA. Radioligand binding was measured in the presence of 10 μM 1180-447. […] For experimental details please refer to the PDSP web site https://pdsp.unc.edu/ims/investigator/web/.
(§3) The NIMH PDSP is Directed by Bryan L. Roth at the University of North Carolina at Chapel Hill and Project Officer Jamie Driscoll at NIMH, Bethesda Md., USA. Radioligand binding was measured in the presence of 10 μM 1180-420. […] For experimental details please refer to the PDSP web site https://pdsp.unc.edu/ims/investigator/web/.

β3 = β3 (Homo sapiens, UniProt P13945); assay: NIMH PDSP radioligand binding, β3; settings: read-out: Radioligand binding in 10 μM compound (% control)
Method: as §1, §2, §3

5-HT2A = target: T1, 5-HT2A (Homo sapiens, UniProt P28223); assay: NIMH PDSP radioligand binding, 5-HT2A; settings: 10 μM, read-out: Radioligand binding in 10 μM compound (% control)
T1 construct: NIMH PDSP (assay provider)
Method: as §1, §2, §3

M3 = M3 (Homo sapiens, UniProt P20309); assay: NIMH PDSP radioligand binding, M3; settings: read-out: Radioligand binding in 10 μM compound (% control)
Method: as §1, §2, §3

H1 = H1 (Homo sapiens, UniProt P35367); assay: NIMH PDSP radioligand binding, H1; settings: read-out: Radioligand binding in 10 μM compound (% control)
Method: as §1, §2, §3

α1β2γδ-nACh = assay: Off-target two-electrode voltage clamp assay, α1β2γδ-nACh; format: cell-based; settings: 10 μM, mean ± SEM
Method: as §1

α2A = α2A (Homo sapiens, UniProt P08913); assay: NIMH PDSP radioligand binding, α2A; settings: read-out: Radioligand binding in 10 μM compound (% control)
Method: as §1, §2, §3

H4 = H4 (Homo sapiens, UniProt Q9H3N8); assay: NIMH PDSP radioligand binding, H4; settings: read-out: Radioligand binding in 10 μM compound (% control)
Method: as §1, §2, §3

[2] = target: translocator protein (peripheral benzodiazepine site) (Homo sapiens, UniProt P30536); assay: NIMH PDSP radioligand binding, translocator protein; settings: read-out: Radioligand binding in 10 μM compound (% control)
Method: as §1, §2, §3

serotonin transporter = serotonin transporter (Homo sapiens, UniProt P31645); assay: NIMH PDSP radioligand binding, serotonin transporter; settings: read-out: Radioligand binding in 10 μM compound (% control)
Method: as §1, §2, §3

α1A = α1A (Homo sapiens, UniProt P35348); assay: NIMH PDSP radioligand binding, α1A; settings: read-out: Radioligand binding in 10 μM compound (% control)
Method: as §1, §2, §3

[3] = In vivo pharmacokinetics, plasma and brain, IP 10 mg/kg; design: species or system C57BL/6 mice; settings: mouse
Method: In vivo analysis of 1180-420 and 1180-447 for pharmacokinetic properties: In vivo analysis of 1180-420 and 1180-447 for pharmacokinetic properties was performed by Pharmaron (Irvine, Calif.). […] The mouse is placed head down at a 45-degree angle to facilitate blood removal. After perfusion, the brain ventricle is opened, and the brain is removed. […] The mixtures were then vortexed for 30 seconds and subsequently centrifuged (˜4000 rpm) for 15 minutes.

5-HT5A = target: T2, 5-HT5A (Homo sapiens, UniProt P47898); assay: NIMH PDSP radioligand binding, 5-HT5A; settings: read-out: Radioligand binding in 10 μM compound (% control)
T2 construct: NIMH PDSP (assay provider)
Method: as §1, §2, §3

D5 = target: T3, D5 (Homo sapiens, UniProt P21918); assay: NIMH PDSP radioligand binding, D5
T3 construct: NIMH PDSP (assay provider)
Method: as §1, §2, §3

α1D = α1D (Homo sapiens, UniProt P25100); assay: NIMH PDSP radioligand binding, α1D; settings: read-out: Radioligand binding in 10 μM compound (% control)
Method: as §1, §2, §3

GluA2 = target: T4, GluA2 (Homo sapiens, UniProt P42262); assay: Off-target two-electrode voltage clamp assay, GluA2; format: cell-based; settings: 10 μM, mean ± SEM
T4 construct: expressed in transfected cells
Method: as §1

hERG = hERG (Homo sapiens, UniProt Q12809); assay: NIMH PDSP hERG binding
Method: as §1, §2, §3

α1B = α1B (Homo sapiens, UniProt P35368); assay: NIMH PDSP radioligand binding, α1B; settings: read-out: Radioligand binding in 10 μM compound (% control)
Method: as §1, §2, §3

δ-opioid receptor = δ-opioid receptor (Homo sapiens, UniProt P41143); assay: NIMH PDSP radioligand binding, δ-opioid receptor; settings: read-out: Radioligand binding in 10 μM compound (% control)
Method: as §1, §2, §3

H2 = H2 (Homo sapiens, UniProt P25021); assay: NIMH PDSP radioligand binding, H2; settings: read-out: Radioligand binding in 10 μM compound (% control)
Method: as §1, §2, §3

σ1 = σ1 (Homo sapiens, UniProt Q99720); assay: NIMH PDSP radioligand binding, σ1; settings: read-out: Radioligand binding in 10 μM compound (% control)
Method: as §1, §2, §3

5-HT2B = target: T5, 5-HT2B (Homo sapiens, UniProt P41595); assay: NIMH PDSP radioligand binding, 5-HT2B; settings: read-out: Radioligand binding in 10 μM compound (% control)
T5 construct: NIMH PDSP (assay provider)
Method: as §1, §2, §3

D1 = target: T6, D1 (Homo sapiens, UniProt P21728); assay: NIMH PDSP radioligand binding, D1; settings: read-out: Radioligand binding in 10 μM compound (% control)
T6 construct: NIMH PDSP (assay provider)
Method: as §1, §2, §3

β1 = β1 (Homo sapiens, UniProt P08588); assay: NIMH PDSP radioligand binding, β1; settings: read-out: Radioligand binding in 10 μM compound (% control)
Method: as §1, §2, §3

M1 = M1 (Homo sapiens, UniProt P11229); assay: NIMH PDSP radioligand binding, M1; settings: read-out: Radioligand binding in 10 μM compound (% control)
Method: as §1, §2, §3

5-HT7 = target: T7, 5-HT7 (Homo sapiens, UniProt P34969); assay: NIMH PDSP radioligand binding, 5-HT7; settings: read-out: Radioligand binding in 10 μM compound (% control)
T7 construct: NIMH PDSP (assay provider)
Method: as §1, §2, §3

σ2 = σ2 (Homo sapiens, UniProt Q5BJF2); assay: NIMH PDSP radioligand binding, σ2
Method: as §1, §2, §3

dopamine transporter = dopamine transporter (Homo sapiens, UniProt Q01959); assay: NIMH PDSP radioligand binding, dopamine transporter; settings: read-out: Radioligand binding in 10 μM compound (% control)
Method: as §1, §2, §3

[4] = male, C57BL/6, Plasma IP 10 mg/kg fed, mean
[5] = 10 μM, read-out: Radioligand binding in 10 μM compound (% control)
[6] = read-out: pKi values from non-linear regression of radioligand competition binding isotherms (converted)

T3 sequence (P21918 whole entry): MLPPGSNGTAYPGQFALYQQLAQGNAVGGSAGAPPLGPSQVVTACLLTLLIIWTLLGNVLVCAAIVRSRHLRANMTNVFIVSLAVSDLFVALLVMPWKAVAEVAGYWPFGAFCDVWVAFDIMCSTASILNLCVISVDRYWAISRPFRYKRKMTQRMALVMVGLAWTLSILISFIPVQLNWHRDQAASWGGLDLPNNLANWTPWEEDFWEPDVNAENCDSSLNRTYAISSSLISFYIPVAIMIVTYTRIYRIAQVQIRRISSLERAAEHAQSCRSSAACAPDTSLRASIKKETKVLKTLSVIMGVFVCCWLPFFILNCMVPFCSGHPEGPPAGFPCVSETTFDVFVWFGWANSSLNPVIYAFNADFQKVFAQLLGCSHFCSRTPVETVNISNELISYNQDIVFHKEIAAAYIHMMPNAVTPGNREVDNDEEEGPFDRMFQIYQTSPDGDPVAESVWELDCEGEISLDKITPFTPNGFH
Chain of σ2 (Q5BJF2 whole entry): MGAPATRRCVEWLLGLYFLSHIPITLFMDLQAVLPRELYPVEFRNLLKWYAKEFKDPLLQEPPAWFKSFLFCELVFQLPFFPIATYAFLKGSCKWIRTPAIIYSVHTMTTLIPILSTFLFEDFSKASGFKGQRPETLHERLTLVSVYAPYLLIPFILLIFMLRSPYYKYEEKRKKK
T1 sequence (P28223 whole entry, species assumed): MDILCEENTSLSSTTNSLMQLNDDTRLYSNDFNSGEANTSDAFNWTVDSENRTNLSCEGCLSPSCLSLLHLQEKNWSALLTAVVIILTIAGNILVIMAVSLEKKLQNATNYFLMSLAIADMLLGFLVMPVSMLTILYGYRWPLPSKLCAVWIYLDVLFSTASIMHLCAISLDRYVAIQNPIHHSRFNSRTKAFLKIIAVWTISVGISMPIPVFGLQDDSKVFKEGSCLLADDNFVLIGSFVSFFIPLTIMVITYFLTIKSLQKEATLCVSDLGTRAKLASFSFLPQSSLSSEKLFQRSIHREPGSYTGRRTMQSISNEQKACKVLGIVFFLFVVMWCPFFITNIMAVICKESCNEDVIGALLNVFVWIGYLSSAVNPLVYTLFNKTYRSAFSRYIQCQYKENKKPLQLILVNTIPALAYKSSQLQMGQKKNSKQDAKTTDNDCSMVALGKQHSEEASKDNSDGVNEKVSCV
Chain of H2 (P25021 whole entry): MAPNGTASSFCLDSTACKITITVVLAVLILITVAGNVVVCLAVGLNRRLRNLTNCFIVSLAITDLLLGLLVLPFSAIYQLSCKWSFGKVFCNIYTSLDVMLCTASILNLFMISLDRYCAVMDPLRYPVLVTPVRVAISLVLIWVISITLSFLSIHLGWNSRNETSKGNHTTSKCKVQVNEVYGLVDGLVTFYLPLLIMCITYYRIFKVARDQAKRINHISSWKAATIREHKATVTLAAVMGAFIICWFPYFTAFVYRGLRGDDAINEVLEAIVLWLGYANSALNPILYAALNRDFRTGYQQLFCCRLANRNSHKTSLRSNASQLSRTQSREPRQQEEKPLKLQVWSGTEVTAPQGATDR
T7 sequence (P34969 whole entry, species assumed): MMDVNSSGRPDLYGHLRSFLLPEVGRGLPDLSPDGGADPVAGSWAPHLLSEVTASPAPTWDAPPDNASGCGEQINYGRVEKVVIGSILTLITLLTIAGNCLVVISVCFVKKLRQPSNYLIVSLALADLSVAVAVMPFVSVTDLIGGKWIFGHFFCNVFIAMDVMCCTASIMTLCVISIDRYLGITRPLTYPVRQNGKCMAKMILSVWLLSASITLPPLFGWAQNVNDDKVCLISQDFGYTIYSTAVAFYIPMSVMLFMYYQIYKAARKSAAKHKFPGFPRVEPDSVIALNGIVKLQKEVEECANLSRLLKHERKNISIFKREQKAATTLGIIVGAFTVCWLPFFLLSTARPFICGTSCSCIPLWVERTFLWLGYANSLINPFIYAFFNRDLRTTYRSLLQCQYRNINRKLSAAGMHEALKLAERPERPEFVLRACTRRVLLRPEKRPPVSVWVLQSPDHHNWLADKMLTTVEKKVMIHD
T6 sequence (P21728 whole entry): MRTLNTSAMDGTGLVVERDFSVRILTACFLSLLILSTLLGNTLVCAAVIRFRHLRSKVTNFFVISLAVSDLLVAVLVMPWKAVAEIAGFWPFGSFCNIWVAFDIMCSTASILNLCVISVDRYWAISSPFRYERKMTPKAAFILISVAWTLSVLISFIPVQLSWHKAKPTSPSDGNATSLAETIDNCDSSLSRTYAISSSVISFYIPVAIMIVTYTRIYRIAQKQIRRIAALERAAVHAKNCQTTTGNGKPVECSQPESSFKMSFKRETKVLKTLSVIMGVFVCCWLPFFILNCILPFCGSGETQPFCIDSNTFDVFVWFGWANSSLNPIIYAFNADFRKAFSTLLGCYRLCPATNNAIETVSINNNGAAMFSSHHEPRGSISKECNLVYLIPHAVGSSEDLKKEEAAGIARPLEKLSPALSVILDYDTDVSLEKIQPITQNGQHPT
Chain of H4 (Q9H3N8 whole entry): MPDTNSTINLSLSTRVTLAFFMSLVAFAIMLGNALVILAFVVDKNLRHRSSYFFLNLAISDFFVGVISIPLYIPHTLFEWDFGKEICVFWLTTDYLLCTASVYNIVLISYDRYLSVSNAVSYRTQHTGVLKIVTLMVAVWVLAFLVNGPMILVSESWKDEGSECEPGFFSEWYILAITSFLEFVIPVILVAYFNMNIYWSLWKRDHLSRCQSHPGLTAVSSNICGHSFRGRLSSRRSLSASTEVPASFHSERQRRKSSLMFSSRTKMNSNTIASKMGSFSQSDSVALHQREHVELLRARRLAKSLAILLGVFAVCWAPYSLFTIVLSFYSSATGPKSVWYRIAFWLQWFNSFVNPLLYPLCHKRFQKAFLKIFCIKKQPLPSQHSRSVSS
Chain of dopamine transporter (Q01959 whole entry): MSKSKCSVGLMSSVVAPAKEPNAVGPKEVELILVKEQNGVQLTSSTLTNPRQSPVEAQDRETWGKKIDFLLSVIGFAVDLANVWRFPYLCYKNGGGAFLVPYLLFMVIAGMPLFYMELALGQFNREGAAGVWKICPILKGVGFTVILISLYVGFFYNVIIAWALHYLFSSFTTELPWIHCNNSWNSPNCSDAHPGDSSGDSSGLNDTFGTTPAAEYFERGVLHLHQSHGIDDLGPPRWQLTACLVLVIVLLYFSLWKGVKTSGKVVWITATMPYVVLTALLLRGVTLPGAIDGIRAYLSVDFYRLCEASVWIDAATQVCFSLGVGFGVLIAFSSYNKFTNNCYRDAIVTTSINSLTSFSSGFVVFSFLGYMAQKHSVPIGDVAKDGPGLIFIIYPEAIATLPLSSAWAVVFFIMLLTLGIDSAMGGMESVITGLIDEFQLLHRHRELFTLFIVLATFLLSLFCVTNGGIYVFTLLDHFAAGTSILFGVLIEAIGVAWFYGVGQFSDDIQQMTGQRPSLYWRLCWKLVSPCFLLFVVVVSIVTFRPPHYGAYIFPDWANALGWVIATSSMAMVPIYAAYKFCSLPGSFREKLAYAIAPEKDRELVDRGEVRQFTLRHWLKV
Chain of β3 (P13945 whole entry): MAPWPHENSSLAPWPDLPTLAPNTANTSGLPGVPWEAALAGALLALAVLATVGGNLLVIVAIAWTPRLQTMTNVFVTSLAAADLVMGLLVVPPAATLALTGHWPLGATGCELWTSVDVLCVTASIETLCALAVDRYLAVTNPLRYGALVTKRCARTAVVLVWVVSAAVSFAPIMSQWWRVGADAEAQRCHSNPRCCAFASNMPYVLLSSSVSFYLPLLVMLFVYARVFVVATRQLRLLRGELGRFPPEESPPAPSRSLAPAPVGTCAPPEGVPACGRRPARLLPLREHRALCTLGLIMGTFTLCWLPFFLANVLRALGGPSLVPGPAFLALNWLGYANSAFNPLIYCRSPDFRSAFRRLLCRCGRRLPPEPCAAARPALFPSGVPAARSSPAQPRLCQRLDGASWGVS
Chain of α1A (P35348 whole entry): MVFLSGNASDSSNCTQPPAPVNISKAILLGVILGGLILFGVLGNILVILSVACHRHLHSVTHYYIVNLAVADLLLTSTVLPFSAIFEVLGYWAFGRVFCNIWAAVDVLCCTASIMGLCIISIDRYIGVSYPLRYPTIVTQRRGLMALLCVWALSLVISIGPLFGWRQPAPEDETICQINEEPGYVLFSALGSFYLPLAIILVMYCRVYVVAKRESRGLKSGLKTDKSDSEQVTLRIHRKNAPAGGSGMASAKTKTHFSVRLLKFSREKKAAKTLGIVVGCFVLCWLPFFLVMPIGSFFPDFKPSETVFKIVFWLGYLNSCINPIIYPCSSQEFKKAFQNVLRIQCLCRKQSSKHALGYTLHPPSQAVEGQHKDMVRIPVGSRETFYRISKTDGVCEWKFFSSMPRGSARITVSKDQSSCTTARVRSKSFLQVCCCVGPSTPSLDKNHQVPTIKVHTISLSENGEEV
Chain of serotonin transporter (P31645 whole entry): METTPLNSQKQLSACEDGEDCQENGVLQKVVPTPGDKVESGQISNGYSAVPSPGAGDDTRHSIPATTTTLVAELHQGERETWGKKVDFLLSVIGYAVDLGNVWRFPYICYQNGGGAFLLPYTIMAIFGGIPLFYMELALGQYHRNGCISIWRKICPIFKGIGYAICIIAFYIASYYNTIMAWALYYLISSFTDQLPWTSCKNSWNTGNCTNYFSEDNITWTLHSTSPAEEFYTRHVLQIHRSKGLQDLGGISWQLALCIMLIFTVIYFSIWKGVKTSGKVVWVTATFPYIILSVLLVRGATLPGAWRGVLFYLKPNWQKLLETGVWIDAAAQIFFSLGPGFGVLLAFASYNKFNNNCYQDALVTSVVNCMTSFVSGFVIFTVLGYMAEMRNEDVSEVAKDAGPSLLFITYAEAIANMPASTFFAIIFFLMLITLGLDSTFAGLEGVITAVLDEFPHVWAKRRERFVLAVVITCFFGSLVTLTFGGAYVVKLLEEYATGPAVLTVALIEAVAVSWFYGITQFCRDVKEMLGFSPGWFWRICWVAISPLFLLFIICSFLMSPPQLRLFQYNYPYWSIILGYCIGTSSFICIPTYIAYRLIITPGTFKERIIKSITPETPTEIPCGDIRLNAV

COc1ccc(OCC2c3cccn3CCN2C(=O)c2cccc(Cl)c2)cc1 (stereo not shown) [1180-420, (3-Chlorophenyl)(1-((4-methoxyphenoxy)methyl)-3,4-dihydropyrrolo[1,2-a]pyrazin-2(1H)-yl)methanone]
Radioligand binding in 10 μM compound (% control) [1]: 71 % control | remaining activity at 10 µM (β3): 74% | remaining activity at 10 µM (5-HT2A): 69% | remaining activity at 10 µM (M3): 69% | remaining activity at 10 µM (H1): 74% | % control response (α1β2γδ-nACh): 93.4 ± 15.5 % control response | remaining activity at 10 µM (α2A): 79% | remaining activity at 10 µM (H4): 90% | remaining activity at 10 µM [2]: 67% | remaining activity at 10 µM (serotonin transporter): 86% | remaining activity at 10 µM (α1A): 91% | AUC % Extrapolation ([3]; Brain IP 10 mg/kg fed, mean): 7% | AUCINF ([3]; Brain IP 10 mg/kg fed, mean): 1413 ng·h/g | AUCLAST ([3]; Brain IP 10 mg/kg fed, mean): 1315 ng·h/g | t½terminal ([3]; Brain IP 10 mg/kg fed, mean): 66 min | max brain concentration ([3]; IP 10 mg/kg): 4 µM | AUC % Extrapolation ([3]; Plasma IP 10 mg/kg fed, mean): 8% | t½terminal ([3]; Plasma IP 10 mg/kg fed, mean): 66 min | Kp ([3]; male, C57BL/6, brain and plasma, IP 10 mg/kg fed, read-out: Ratio_AUCLAST (Brain/plasma)): 2 | half-life ([3]; male, C57BL/6, plasma, IP 10 mg/kg, read-out: half-lives in plasma): > 60 min | Tmax ([3]; male, C57BL/6, Brain IP 10 mg/kg fed, mean): 18 min | Cmax ([3]; male, C57BL/6, Brain IP 10 mg/kg fed, mean, read-out: Cmax): 3.5 µM | Cmax ([3]; male, C57BL/6, Brain IP 10 mg/kg fed, mean, read-out: Cmax (ng/g)): 1410 ng/g | AUC(0-inf) [3, 4]: 0.856 µg·h/mL | AUC(0-t) [3, 4]: 0.792 µg·h/mL | Tmax [3, 4]: 18 min | Cmax ([3]; male, C57BL/6, Plasma IP 10 mg/kg fed, mean, read-out: Cmax): 2.1 µM | Cmax ([3]; male, C57BL/6, Plasma IP 10 mg/kg fed, mean, read-out: Cmax (ng/mL)): 841 ng/mL | remaining activity at 10 µM (5-HT5A): 95% | remaining activity at 10 µM (D5; [5]): 37% | Ki (D5; [6]): 1.26 µM | remaining activity at 10 µM (α1D): 79% | % control response (GluA2): 101.6 ± 1.3 % control response | Radioligand binding in 10 μM compound (% control) (hERG): 73 % control | remaining activity at 10 µM (α1B): 100% | remaining activity at 10 µM (δ-opioid receptor): 89% | remaining activity at 10 µM (H2): 75% | remaining activity at 10 µM (σ1): 76% | remaining activity at 10 µM (5-HT2B): 97% | remaining activity at 10 µM (D1): 59% | remaining activity at 10 µM (β1): 98% | remaining activity at 10 µM (M1): 90% | remaining activity at 10 µM (5-HT7): 115% | remaining activity at 10 µM (σ2; [5]): 48% | Ki (σ2; [6]): 1.58 µM | remaining activity at 10 µM (dopamine transporter): 98%
